Test results reported in patent publication US10973803B2, “Sodium salt of N-((1,2,3,5,6,7-hexahydro-s-indacen-4-yl)carbamoyl)-1-isopropyl-1H-pyrazole-3-sulfonamide” (INFLAZOME LIMITED, priority 2018, dated 2021).

Assays:
[1] = XRPD after storage at elevated temperature and humidity (stability of polymorphic form); type: physicochemical
Protocol: X-Ray Powder Diffraction (XRPD), Ion Chromatography (IC), Karl Fischer titration (KF), Thermogravimetric Analysis (TGA), Differential Scanning Calorimetry (DSC) and high performance liquid chromatography (HPLC) techniques referred to in the examples were carried out under the following conditions: XRPD diffractograms were collected on a Bruker D8 diffractometer using CuKα radiation (40 kV, 40 mA) and a θ-2θ goniometer fitted with a Ge monochromator. The incident beam passed through a 2.0 mm divergence slit followed by a 0.2 mm antiscatter slit and knife edge. The diffracted beam passed through an 8.0 mm receiving slit with 2.5° Soller slits followed by the Lynxeye Detector. The software used for data collection and analysis was Diffrac Plus XRD Commander and Diffrac Plus EVA respectively. Samples were run under ambient conditions as flat plate specimens using powder as received. The sample was prepared on a polished, zero-background (510) silicon wafer by gently pressing onto the flat surface or packed into a cut cavity.
The XRPD spectra shown in FIG. 1 were obtained directly after preparation of the product, after storage for 1 week and for 5 weeks at 40° C. and 75% relative humidity, and after storage for 1 week and for 5 weeks at 25° C. and 97% relative humidity.
The XRPD spectra shown in FIG. 3 were obtained directly after preparation of the product, after storage for 1 week at 40° C. and 75% relative humidity, and after storage for 1 week at 25° C. and 97% relative humidity.

[2] = thermodynamic aqueous solubility measured in water
[3] = intrinsic dissolution rate (US Pharmacopoeia, chapter 1087); type: physicochemical
Protocol: The intrinsic dissolution rate was measured by the procedure set out in the US Pharmacopoeia, chapter 1087.

[4] = stability in aqueous media; type: physicochemical; settings: 0.2 mg/ml; for stability in aqueous media (in words): 50° C. and room temperature; for Stability in aqueous media (24 hrs at 50° C.) / Stability in aqueous media (24 hrs at room temperature): sodium salt in water, free acid in 1:1 water and acetonitrile; for Stability in aqueous media (24 hrs at 50° C.): amber vial
Protocol: To measure the stability in aqueous media, the sodium salt was dissolved in water at a concentration of 0.2 mg/ml. Due to the very poor aqueous solubility of the free acid, the free acid was dissolved in a 1:1 mixture of water and acetonitrile at the same concentration of 0.2 mg/ml. Samples were kept at 50° C. in an amber vial and at room temperature in an amber vial as well as a clear vial.

physchem = settings: water, thermodynamic from solid

CC(C)n1ccc(S(=O)(=O)NC(=O)Nc2c3c(cc4c2CCC4)CCC3)n1.[Na] [Example 3, N-((1,2,3,5,6,7-hexahydro-s-indacen-4-yl)carbamoyl)-1-isopropyl-1H-pyrazole-3-sulfonamide monosodium anhydrate]
polymorphic form stability on storage at elevated humidity (XRPD) ([1]; 1 week at 25° C. and 97% relative humidity): converts to the monosodium monohydrate (Form 1)
polymorphic form stability on storage at elevated temperature (XRPD) ([1]; 1 week at 40° C. and 75% relative humidity): stable at elevated temperature

CC(C)n1ccc(S(=O)(=O)NC(=O)Nc2c3c(cc4c2CCC4)CCC3)n1 [Comparative Example 1, N-((1,2,3,5,6,7-hexahydro-s-indacen-4-yl)carbamoyl)-1-isopropyl-1H-pyrazole-3-sulfonamide free acid, reference compound]
Aqueous Solubility ([2]; thermodynamic, in water): <0.5 mg/mL
solubility ([2]; water, thermodynamic from solid): < 0.5 mg/mL
Intrinsic dissolution rate (at pH 2) [3]: 4 μg/min · mm^2
stability in aqueous media (in words) [4]: unstable
Stability in aqueous media (24 hrs at 50° C.) [4]: 94% degradation
Stability in aqueous media (24 hrs at room temperature) [4]: 37% degradation

CC(C)n1ccc(S(=O)(=O)NC(=O)Nc2c3c(cc4c2CCC4)CCC3)n1.O.[Na] [Example 2, N-((1,2,3,5,6,7-hexahydro-s-indacen-4-yl)carbamoyl)-1-isopropyl-1H-pyrazole-3-sulfonamide monosodium monohydrate]
solubility (physchem): 81 mg/mL
stability with respect to conversion into other polymorphic forms (XRPD) ([1]; storage 1 week and 5 weeks at 40° C. and 75% relative humidity, and 1 week and 5 weeks at 25° C. and 97% relative humidity): shows stability with respect to conversion into other polymorphic forms
resulting pH of aqueous solution ([2]; in water at solubility of 81 mg/ml): 9.7
Intrinsic dissolution rate (at pH 2) [3]: 10 μg/min · mm^2
intrinsic dissolution rate relative to that of the free acid ([3]; sodium salt versus free acid): at least twice as high
stability in aqueous media (in words) [4]: stable in aqueous media
Stability in aqueous media (24 hrs at 50° C.) [4]: 2.7% degradation
Stability in aqueous media (24 hrs at room temperature) [4]: No significant
